Laboratory results: article PMC12612973, “Inhibition of Human Amylin Aggregation: In Silico and In Vitro Studies” (ACS Omega, 2025)
“And” between values parts separate entries of the source, which are not always exact repeats. Identical values can stand only once.

Key:
[1] = molecular target: T1, human amylin (hIAPP) (Homo sapiens, UniProt P10997); experiment: Dynamic light scattering (DLS) assay of amylin aggregation; type: biochemical; conditions: compound 10 μM, amylin 15 μM, 36 h incubation, 3 trials; read-out: DLS inhibition % (mean ± SEM)
T1 construct: purchased Bachem USA
T1 sequence (P10997 34-70 limits assumed): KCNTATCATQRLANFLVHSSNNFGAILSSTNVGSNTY
Method: A stock solution of amylin (1 mM) (purchased from Bachem USA), peptide sequence: […] amide (with disulfide bond between Cys2 and Cys7), was prepared in 100% hexafluoroisopropyl alcohol (HFIP) (purchased from Sigma-Aldrich) and stored at −20 °C. , Aliquots of amylin peptide were filtered through a 0.22 μm filter from the stock solution and freeze-dried. For kinetic experiments, 15 μM of amylin was prepared in 50 mM Tris-HCl buffer (pH 7.4), as investigated in previous studies by Chaari et al., , Samples of amylin were prepared in the presence or absence of inhibitors. Each compound was dissolved in DMSO and further diluted with the buffer used to solubilize the amylin. The final mixture contained 15 μM amylin, 10 μM of the test compound, 2% DMSO or 15 μM amylin, and 2% DMSO without the compound (negative control). Also 15 μM amylin, 10 μM of oleuropein aglycone and 2% DMSO was used as a positive control. The prepared solutions were incubated under physiological conditions (pH 7.4 and 37 °C) for amylin aggregation. Samples were incubated for 36 h to test for amylin aggregation, and measurements were conducted at different time points.
DLS (Zetasizer, Malvern) was used at a wavelength of 633 nm to measure the average diffusion coefficient distribution of amylin particles and the aggregation percentage. Samples were diluted 10-fold, and 50 μL was placed into a 96-well plate. The total light scattering intensity at a 90° angle was collected using a 10 s averaging acquisition time. Particle translational diffusion coefficients were calculated from autocorrelated light intensity data (usually 30–40 points) and converted to the hydrodynamic radius (R h) using the Stokes–Einstein equation. A distribution plot of intensity versus R h was calculated using the Sedfit 9.3 analysis software, and intensity-weighted mean R h values were obtained from each peak.

[2] = molecular target: T1, human amylin (hIAPP); experiment: Kinetic analysis of amylin aggregation (ThT, two-step autocatalytic aggregation model); type: biochemical; conditions: mean ± S.D.; for t 0 (time point when the aggregation starts): 10% of highest ThT fluorescence; for t 1/2 (aggregation halftime): 50% of highest ThT fluorescence; for t 1 (aggregation endpoint): 90% of highest ThT fluorescence; for k / k e (elongation constant) / k n (nucleation constant) / ρ (ratio of kn to k): ThT data, autocatalytic aggregation model
Method: Kinetic analysis was performed according to the model of autocatalytic aggregation. According to Sabaté et al., aggregation is a two-step process, comprising nucleation (described by the k n constant) and fibrillation phases (represented by the k e constant). Two constants (k n and k e) are calculated using the eq : 5 f=ρ{e^[(1+ρ)kt]−1}/{1+ρe^[(1+ρ)kt]} where k = k e a (where a represents the initial concentration of the aggregating peptide), f stands for a fraction of the fibrillar form in the system, and ρ denotes the dimensionless ratio of k n to k. The parameters k and ρ were calculated first, then k n and k e.
Data were normalized as a fraction of the highest fluorescence from the three trials and fitted into the model of autocatalytic aggregation. The same procedure was repeated for the remaining trials. The second calculation aimed to find the time parameters of the aggregation process: t 0 (time point when the aggregation starts), t 1/2 (aggregation halftime), and t 1 (aggregation endpoint). t 0, t 1/2, and t 1 were calculated as 10%, 50%, and 90% of the highest fluorescence measurements from the three trials, respectively. All calculations were performed using GraphPad Prism 9.5.1, Statistica 13.3.721.1, and Microsoft Excel 2304.

[3] = test system: Pancreatic INS-1E cells; experiment: MTT cytotoxicity assay of amylin aggregates aged with or without inhibitors; type: cell-based; conditions: for effect on INS-1E cell viability in presence of amylin: INS-1E cells cultured with the MTDLs
Method: In this study, we utilized Pancreatic INS-1E cells (Department of Cell Physiology and Metabolism, University Medical Center, Switzerland) due to their close physiological similarity to native β-cells, making them highly relevant to our experimental objectives. Pancreatic INS-1E cells were grown in RPMI 1640 medium, supplemented with 2 mM glutamine, 5% fetal calf serum, 10 mM HEPES (pH 7.4), 1 mM sodium pyruvate, 50 μM 2-mercaptoethanol, 100 units/mL penicillin, and 0.1 mg/mL streptomycin. The culturing environment was maintained at 37 °C, 5% CO2, pH 7.4.
The toxicity of human amylin aggregates in the presence or absence of different compounds in the presence of 2% DMSO was assessed by the 3-(4,5-dimethylthiazol-2-yl)-2,5-diphenyltetrazolium bromide (MTT) reduction assay. The cells were cultured and then seeded into 96-well plates and grown for 24 h prior to exposure to different intermediates of amylin or a mixture of amylin with the MTDLs. The final amylin concentration within the culture medium was 5 μM. Cell viability was expressed as the percentage of MTT reduction, using cells treated with the same buffer volume as a reference (100% MTT reduction). The values (averages ± S.D.) were obtained from three independent experiments.

[4] = molecular target: T1, human amylin (hIAPP); experiment: Thioflavin T (ThT) fluorescence assay of amylin aggregation; type: biochemical; conditions: read-out: IC50 of amylin aggregation inhibition
[5] = test system: Aβ; parameters: method as in Panek et al.; conditions: based on ThT assay results; ref Panek et al.; read-out: IC50 of Aβ aggregation inhibition; cited from earlier work

Structure (SMILES) | inhibition at 10 µM [1] | t 0 (time point when the aggregation starts) [2] | t 1/2 (aggregation halftime) [2] | t 1 (aggregation endpoint) [2] | k [2] | k e (elongation constant) [2] | k n (nucleation constant) [2] | ρ (ratio of kn to k) [2] | cell viability difference versus the sample with amylin fibrils ([3]; INS-1E cells 24 h, amylin aggregates aged 36 h with 2.92 μM compound 18 or 3.31 μM compound 21) | effect on INS-1E cell viability in presence of amylin [3] | IC50 [4] | IC50 [5] | cell viability difference versus oleuropein aglycone ([3]; INS-1E cells 24 h, amylin aggregates aged 36 h with compound) | cell viability (MTT reduction) ([3]; INS-1E cells 24 h with amylin aggregates aged 36 h in presence of compound (2.61 μM of compound 22)) | cell viability higher than that of the control ([3]; cytotoxicity assay, discussion statement)
CC(C)(C)c1cccc(CNCC(O)CNCCC(c2ccccc2)c2ccccc2)c1 (centres unmarked) [Compound 18] | 99.2 ± 6.5% | 9.31 ± 0.72 h | 19.02 ± 0.57 h | 29.29 ± 0.36 h | 0.2087 ± 0.0084 h^–1 | 13913 M^–1h^–1 and 13913 ± 560 M^–1h^–1 | 0.004 h^–1 and 0.0039 ± 0.0009 h^–1 | 0.0186 ± 0.0051 | approximately 30 % points | retained cell viability | 3040 nM | 3090 nM | – | – | –
CC(C)(C)c1cccc(CNCC(O)CCNCCC(c2ccccc2)c2ccccc2)c1 (centres unmarked) [Compound 22] | 99.2 ± 6.8% | 4.36 ± 0.16 h | 11.87 ± 1.02 h | 20.69 ± 2.27 h | 0.2326 ± 0.0366 h^–1 | 15505 M^–1h^–1 and 15505 ± 2437 M^–1h^–1 | 0.014 h^–1 and 0.0142 ± 0.0006 h^–1 | 0.0624 ± 0.0126 | – | retained cell viability | 2710 nM | 1220 nM | around 8 % points | ~93% | ~40%
